Data: PubChem BioAssay AID1845202 (Molecular Pharmacology Branch, DTP, NCI, 2023)
“And” between values parts separate entries of the source, which are not always exact repeats. Identical values can stand only once.

Test system: DMS 114 tumor spheroids, viability % test/control
Assay: Anticancer human tumor DMS 114 cell line growth inhibition;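 also: spheroids exposed to compounds for 7 days before read-out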;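 as to viability, T/C: luminescence used as a proxy for viable cells; 100% = DMSO vehicle control viability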
Details: spheroids with HUVEC and MSC; for viability, T/C: stronger effect = lower value
How it was run: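 Complex tumor spheroids combined malignant cells with endothelial cells and mesenchymal stem cells. DNA-damaging drugs and DNA repair inhibitors were tested alone and in combination, at half-log dilutions down from clinical Cmax (top 10 microM if Cmax unknown), 0.25% DMSO final.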

Cc1cc(C)c(CNC(=O)c2cc(-c3ccc(CN4CCOCC4)cc3)cc3c2cnn3C2CCCC2)c(=O)[nH]1 + CC[C@@]1(O)C(=O)OCc2c1cc1n(c2=O)Cc2cc3c(CN(C)C)c(O)ccc3nc2-1 was tested, and the IC50 (curve of first compound, second compound 0.003 µM) was > 10000 nM, the IC50 (curve of first compound, second compound 0.00949 µM) was > 10000 nM and the IC50 (curve of first compound, second compound 0.03 µM) was < 31.6 nM. For the same compound, the IC50 (curve of first compound, second compound 0.0949 µM) was < 31.6 nM, the IC50 (curve of first compound, second compound 0.3 µM) was < 31.6 nM and the viability, T/C (second compound 0.003 µM, first compound 0.0316 µM) was 112%. The viability, T/C (second compound 0.003 µM, first compound 0.1 µM) was 117%, the viability, T/C (second compound 0.003 µM, first compound 0.316 µM) was 108% and the viability, T/C (second compound 0.003 µM, first compound 1 µM) was 106%. The viability, T/C (second compound 0.003 µM, first compound 3.16 µM) was 98.2%, the viability, T/C (second compound 0.003 µM, first compound 10 µM) was 59.6% and the viability, T/C (second compound 0.00949 µM, first compound 0.0316 µM) was 96.2%. For the same compound, the viability, T/C (second compound 0.00949 µM, first compound 0.1 µM) was 105%, the viability, T/C (second compound 0.00949 µM, first compound 0.316 µM) was 95.4% and the viability, T/C (second compound 0.00949 µM, first compound 1 µM) was 97.1%. The viability, T/C (second compound 0.00949 µM, first compound 3.16 µM) was 84.9%, the viability, T/C (second compound 0.00949 µM, first compound 10 µM) was 58.9% and the viability, T/C (second compound 0.03 µM, first compound 0.0316 µM) was 33.3%. For the same compound, the viability, T/C (second compound 0.03 µM, first compound 0.1 µM) was 39.5%, the viability, T/C (second compound 0.03 µM, first compound 0.316 µM) was 28.3% and the viability, T/C (second compound 0.03 µM, first compound 1 µM) was 35.5%. For the same compound, the viability, T/C (second compound 0.03 µM, first compound 3.16 µM) was 32.1%, the viability, T/C (second compound 0.03 µM, first compound 10 µM) was 30.7% and the viability, T/C (second compound 0.0949 µM, first compound 0.0316 µM) was 16%. It also gave a viability, T/C (second compound 0.0949 µM, first compound 0.1 µM) of 15.5%, a viability, T/C (second compound 0.0949 µM, first compound 0.316 µM) of 14.8% and a viability, T/C (second compound 0.0949 µM, first compound 1 µM) of 16%. It also gave a viability, T/C (second compound 0.0949 µM, first compound 3.16 µM) of 17.2%, a viability, T/C (second compound 0.0949 µM, first compound 10 µM) of 15.5% and a viability, T/C (second compound 0.3 µM, first compound 0.0316 µM) of 9.14%. The viability, T/C (second compound 0.3 µM, first compound 0.1 µM) was 9.67%, the viability, T/C (second compound 0.3 µM, first compound 0.316 µM) was 9.76% and the viability, T/C (second compound 0.3 µM, first compound 1 µM) was 10.1%. The viability, T/C (second compound 0.3 µM, first compound 3.16 µM) was 12.1% and the viability, T/C (second compound 0.3 µM, first compound 10 µM) was 17.6%.
With CNCc1ccc(-c2cc(-c3nc(-c4ccc(S(=O)(=O)C(C)C)cc4)cnc3N)on2)cc1 the viability, T/C (compound 0.00949 µM) was 93% and 107% and 91.3%, the viability, T/C (compound 0.03 µM) was 96.8% and 102% and 94% and the viability, T/C (compound 0.0949 µM) was 88.2% and 77.7% and 80.8%. The viability, T/C (compound 0.3 µM) was 34.7% and 25.9% and 27.3%, the viability, T/C (compound 0.949 µM) was 3.27% and 5.9% and 2.77% and the viability, T/C (compound 3 µM) was 0.32% and 0.23% and 0.26%. For the same compound, the IC50 (curve of compound) was 216 nM and 176 nM and 184 nM.
